What was measured:
rat ovarian aromatase = experiment: Aromatase inhibition in vivo in rats (ovarian aromatase activity); conditions: for % Aromatase inhibition at 30 mg/kg p.o.: PMSG-treated adult female rats, ovaries taken 24 hours later; for In vivo effectiveness by oral route: 30 mg/kg
Source text: The aromatase inhibitors for formula (I) can find also use in the control of reproduction: indeed a decrease in oestrogen levels in vivo results in gonad-inhibiting activity and in insufficient uterine development; aromatase inhibitors may be at the same time implantation inhibitors. Another application of the compounds of the invention is in the treatment of prostatic hypertrophy or hyperplasia, related to an excessive oestrogen production and the shifting of the oestrogen/androgen ratio to higher values. Furthermore, the compounds of the invention, producing decrease in estradiol formation, may be useful for the treatment of male fertility disturbances (Drugs 28: 263, 1984). […] Accordingly, decreased estradiol formation, as can be obtained through administration of the compounds of the invention, leads to an improvement of both sperm count and fertility, in patients with infertility due to oligozoospermia. Aromatase inhibition by the compounds of the present invention was determined, e.g., both in vitro (human placental aromatase) and in vivo (ovarian aromatase activity) in rats.
(§1) The enzyme system was isolated from the microsomal fraction of human placental tissue according to standard procedure. The assay of Thompson and Siiteri [E. A. Thompson and P. K. Siiteri, J. Biol. Chem. 249, 5364, (1974)] which determines the rate of aromatization as measured by the liberation of ^3 H2 O from 4-[1β,2β-^3 H] androsten-3,17-dione was used. All incubations were carried out in a shaking water bath at 37° C. in air in 10 mM potassium phosphate buffer, pH 7.5, which contained 100 mM KCl, 1 mM EDA and 1 mM dithiothreitol. The experiments were carried out in 1 ml incubation volume containing 50 nM 4-[…], various concentrations of the inhibitors, 100 μM NADPH and 0.05 mg of microsomal proteins. After 15 minutes of incubation the reaction was stopped by the addition of chloroform (5 ml). After centrifugation at 1500×g for 5 minutes, aliquots (0.5 ml) were removed from the water phase for determination of ^3 H2 O formed. The concentration of each compound required to reduce control aromatase by 50% (IC50) was determined by plotting % inhibition versus log of inhibitor concentration. The relative potency of each compound versus 4 OH-A was calculated according to the relation: [formula] (b) Aromatase inhibition in vivo in rats Adult female rats were twice treated subcutaneously with 100 I.U. pregnant mares' serum gonadotropin (PMSG) at 4 days' interval, in order to increase ovarian aromatase activity, according to Brodie's procedure [A. M. H. Brodie et al., Steroids 38, 693, (1981)]. Three days after the second PMSG treatment, groups of 6 animals each were given orally the vehicle (0.5% methocel) or the inhibitor at 30 mg/kg. Animals were killed 24 hours later, microsomes were isolated from ovaries and their aromatase activity determined using a method similar to that described in (a).

[1] = biological target: T1, human placental aromatase (Homo sapiens, UniProt P11511); experiment: Aromatase inhibition in vitro (human placental aromatase, 3H2O release assay); type: biochemical
T1 construct: The enzyme system was isolated from the microsomal fraction of human placental tissue; from tissue; host or cells: human placental tissue, microsomal fraction
T1 sequence (P11511 1-503): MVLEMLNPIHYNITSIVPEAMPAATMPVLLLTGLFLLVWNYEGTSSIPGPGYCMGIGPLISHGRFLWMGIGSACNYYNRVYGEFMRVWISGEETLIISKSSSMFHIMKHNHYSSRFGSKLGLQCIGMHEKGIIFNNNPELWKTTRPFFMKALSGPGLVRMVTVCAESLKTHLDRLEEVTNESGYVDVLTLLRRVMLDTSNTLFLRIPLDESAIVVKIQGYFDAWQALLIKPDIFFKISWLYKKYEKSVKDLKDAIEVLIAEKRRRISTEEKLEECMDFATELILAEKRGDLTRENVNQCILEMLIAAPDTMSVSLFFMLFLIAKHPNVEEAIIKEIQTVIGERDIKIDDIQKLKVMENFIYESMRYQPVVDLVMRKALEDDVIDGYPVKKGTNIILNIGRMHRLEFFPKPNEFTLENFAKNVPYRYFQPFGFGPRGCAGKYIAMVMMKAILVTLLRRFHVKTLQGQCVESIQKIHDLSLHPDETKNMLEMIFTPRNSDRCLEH
Description: Aromatase inhibition by the compounds of the present invention was determined, e.g., both in vitro (human placental aromatase) and in vivo (ovarian aromatase activity) in rats.
(a) Aromatase inhibition in vitro
as §1

[2] = Resistance to hepatic metabolization; conditions: oral route
[3] = cited from earlier work

Row | Structure (SMILES) | % Aromatase inhibition at 30 mg/kg p.o. (rat ovarian aromatase) | IC50 [1] | Relative potency (versus 4-OH-A) [1] | Aromatase inhibition in vivo (rat ovarian aromatase; in vivo) | In vivo activity compared to androsta-1,4-dien-3,17-dione (rat ovarian aromatase; in vivo) | In vivo effectiveness by oral route (rat ovarian aromatase) | Potency relative to androsta-1,4-dien-3,17-dione (rat ovarian aromatase; stated as in vivo) | Potency relative to Δ^1-testololactone (times more potent) (rat ovarian aromatase; stated as in vivo) | Resistance to hepatic metabolization [2] | Aromatase inhibition in vitro ([1]; in vitro) | In vitro potency relative to 4-OH-A ([1]; in vitro) | Conjugation after oral administration [3]
1 | C[C@]12C=CC(=O)C=C1CC[C@@H]1[C@@H]2CC[C@]2(C)C(=O)CC[C@@H]12 [androsta-1,4-dien-3,17-dione, reference compound] | 37% |  |  |  |  |  |  |  |  |  |  | 
2 | C[C@]12C=CC(=O)C=C1CC[C@@H]1[C@@H]2CC[C@]2(C)OC(=O)CC[C@@H]12 [Δ^1 -testololactone, reference compound] | inactive | 8240 nM | 0.005 |  |  |  |  |  |  |  |  | 
3 | C[C@]12CCC(=O)C(N)=C1C=C[C@@H]1[C@@H]2CC[C@]2(C)C(=O)CC[C@@H]12 [FCE 24210, 4-aminoandrosta-4,6-dien-3,17-dione] | 70% | 148 nM | 0.30 | very potent aromatase inhibitors both in vitro and in vivo | very superior to that of androsta-1,4-dien-3,17-dione | very effective when administered in vivo by oral route | about equipotent as androsta-1,4-dien-3,17-dione | about 55 times | unusual resistance to hepatic metabolization | very potent aromatase inhibitors both in vitro and in vivo | about three times lower than that of 4-OH-A | 
4 | C[C@]12CCC(=O)C(O)=C1CC[C@@H]1[C@@H]2CC[C@]2(C)C(=O)CC[C@@H]12 [Example 4-OH-A, 4-hydroxyandrost-4-en-3,17-dione, reference compound] | inactive | 44 nM |  |  |  | ineffective |  |  |  |  |  | extensively conjugated after oral administration
